Reference: patent US20220296718A1, “EXCIPIENT FOR BIOTHERAPEUTICS” (Ludwig-Maximilians-Universität München, priority 2019, published 2022)

How the values were obtained:
Format in all cases: physicochemical
[1] = system: recombinant IgG antibody, either rituximab or omalizumab; test: Particles and turbidity (visual inspection) after freezing/thawing and stirring stress of rituximab or omalizumab; conditions: 10 mg/ml rituximab or omalizumab, 20 mM histidine pH 6.0, 75 mM excipient; compared with trehalose, sucrose, or trehalose or sucrose with methionine
Procedure: Production of Test Solutions: The buffer solution consisted of 20 mM histidine buffer pH 6.0. Protein stock solutions were liberated from other excipients by dialysis over 24 h in buffer solution 100-200 times of their volumes. The buffer solution was renewed after 6 hours and after 20 hours. Stock solutions of test excipients were produced by dissolving 500 mM of the excipient in 90% of the required amount of buffer solution. After that, the pH was adjusted and the remaining volume of buffer solution was added. Then, the solution was filtered with a 0.22 μm filter. The corresponding amount of protein stock solution was added. Sufficient homogenization was provided.
(§1) Freeze/Thaw-Cycle: The protein-containing solutions were filled into cleaned 6R vials and crimped. The samples were frozen from 20° C. to −70° C. in 5 cycles in a freezer and then thawed at room temperature until the entire sample had reached the liquid state, before the cycle was started again.
Stirring Stress: The protein-containing solutions were filled into cleaned 6R vials and crimped. Afterwards, the samples were stirred for 2 h at 200 rpm with a magnetic stirrer (Variomag Poly 15, Thermofisher, 5 mm polytetrafluoroethylene—coated stirring bars).
Visual inspection: 3 Vials of each formulation were visually inspected according to the method described in the European Pharmacopoeia. […]

[2] = system: IgG antibody trastuzumab; test: Particle formation after stirring stress of trastuzumab (flow imaging microscopy); conditions: 50 mM phosphate buffer, pH 7.0; 5 mg/ml trastuzumab; 50 mM excipient; 2 h at 200 rpm; FIG. 2
Procedure: (§2) Production of Test Solutions: The buffer solution consisted of 50 mM sodium phosphate at pH 7.0. Protein stock solutions were liberated from other excipients by IEX chromatography to remove potential impurities and surfactants and by dialysis over 24 h in buffer solution 100-200 times of their volumes. The buffer solution was renewed after 3 hours and after 14 hours. Stock solutions of test excipients were produced by dissolving 500 mM of the excipient in 90% of the required amount of buffer solution. After that, the pH was adjusted and the remaining volume of buffer solution was added. Then, the solution was filtered with a 0.22 μm filter. The corresponding amount of protein stock solution was added. Sufficient homogenization was provided.
Stirring Stress: The protein-containing solutions were filled into cleaned 2R vials and crimped. Afterwards, the samples were stirred for 2 h at 200 rpm with a magnetic stirrer (Variomag Poly 15, Thermofisher, 3 mm polytetrafluoroethylene—coated stirring bars).
(§3) Flow Imaging Microscopy: 165 μl of the sample solution were measured at 10× magnification using a flow imaging microscope (FlowCam, Fluid Imaging Technologies, Inc., Scarborough, Me., USA).
(§4) The resulting solutions were subjected to freezing/thawing stress and stirring stress.

[3] = target: T1, recombinant G-CSF (Homo sapiens, UniProt P09919); test: Particles and turbidity after freezing/thawing and stirring stress of G-CSF; conditions: 1 mg/ml G-CSF, 10 mM acetate pH 4.5, 50 mM excipient; compared with trehalose, sucrose, or trehalose or sucrose with methionine
T1 sequence (P09919 31-207): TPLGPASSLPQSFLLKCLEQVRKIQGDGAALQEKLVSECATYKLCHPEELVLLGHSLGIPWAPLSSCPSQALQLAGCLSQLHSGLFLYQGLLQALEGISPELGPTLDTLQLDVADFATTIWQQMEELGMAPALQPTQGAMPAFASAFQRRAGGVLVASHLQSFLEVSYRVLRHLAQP
Procedure: (§5) The production of test solutions, the freeze/thaw-cycle, the measurement of stirring stress and the visual inspection were performed substantially as described in Example 4.
The buffer solution consisted of 10 mM acetate buffer pH 4.5 and was renewed after 4 hours and after 16 hours. For the freeze/thaw cycle and the measurements of stirring stress, 2R vials were used.
N,N,N′,N′-tetrakis-(2-hydroxyethyl) adipinic acid amide (Ark Pharm Inc.), D(+) trehalose (Sigma-Aldrich), sucrose, and mixtures of trehalose or sucrose with methionine (Sigma-Aldrich) respectively, was added as a test excipient to an aqueous solution containing recombinant G-CSF. […] In the case of sucrose or trehalose mixtures with methionine, the concentration of the sugar was 50 mM, and the concentration of methionine was 20 mM. The resulting solutions were subjected to freezing/thawing stress and stirring stress.

[4] = target: interferon-alpha-2a (Homo sapiens, UniProt P01563, R46K); test: Particle formation after freezing/thawing stress of interferon-alpha-2a; conditions: 50 mM phosphate buffer, pH 7.0; 1 mg/ml interferon-alpha-2a; 50 mM excipient; FIG. 3
Chain of interferon-alpha-2a (P01563 24-188 R46K): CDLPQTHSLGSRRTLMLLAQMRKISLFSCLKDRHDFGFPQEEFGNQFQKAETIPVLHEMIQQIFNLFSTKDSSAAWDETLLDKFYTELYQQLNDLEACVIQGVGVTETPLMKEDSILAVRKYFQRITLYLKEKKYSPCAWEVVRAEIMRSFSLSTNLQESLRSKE
Procedure: as §2
as §1, with “2R” for “6R”, “−50°” for “−70°”, “3” for “5”, “cycles at a rate of 2K/min” for “cycles”, “Christ 2D-6 freeze dryer” for “freezer”
as §3
The resulting solutions were subjected to freeze/thawing stress.

[5] = system: IgG antibody trastuzumab; test: Particle formation after freezing/thawing stress of trastuzumab (flow imaging microscopy); conditions: 50 mM phosphate buffer, pH 7.0; 5 mg/ml trastuzumab; 50 mM excipient; FIG. 1
Procedure: as §2
as §1, with “2R” for “6R”, “−50°” for “−70°”, “3” for “5”, “cycles at a rate of 2K/min” for “cycles”, “Christ 2D-6 freeze dryer” for “freezer”
as §3, §4

[6] = target: recombinant anakinra (Homo sapiens, UniProt P18510); test: Particles and turbidity after freezing/thawing and stirring stress of anakinra; conditions: 50 mg/ml anakinra, 20 mM citrate pH 6.5, 50 mM excipient, freezing/thawing and 3 h stirring stress
Chain of recombinant anakinra (P18510 with tags, fused parts or gaps): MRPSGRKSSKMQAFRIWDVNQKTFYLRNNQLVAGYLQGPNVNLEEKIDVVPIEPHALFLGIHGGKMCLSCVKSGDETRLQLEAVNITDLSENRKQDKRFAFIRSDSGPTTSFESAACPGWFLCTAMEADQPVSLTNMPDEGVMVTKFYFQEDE
Procedure: as §5
The buffer solution consisted of 20 mM citrate buffer pH 6.5. The samples were stirred for 3 h.
N,N,N′,N′-tetrakis-(2-hydroxyethyl) adipinic acid amide (Ark Pharm Inc.), D(+) or trehalose (Sigma-Aldrich), or polysorbate 80, was added as a test excipient to an aqueous solution containing recombinant anakinra. […] In the case of polysorbate 80 its concentration was 0.05%. The resulting solutions were subjected to freezing/thawing stress and stirring stress.

[7] = Solubility in water, classification of the European Pharmacopoeia
Procedure: In certain embodiments, the diamide has a solubility in water of at least about 0.02% (w/v), of at least about 0.05% (w/v), of at least about 0.1% (w/v), of at least about 0.5% (w/v) or of at least about 1% (w/v) at 20° C., e.g. as determined by the column elution method according to the OECD Guidelines, Test No. 105. Preferably, the diamide is considered as soluble, well soluble or freely soluble according to the classifications of the European Pharmacopoeia, which is herein incorporated by reference.

| Particles in stressed formulations [1] | Turbidity of stressed formulations [1] | Particles in stressed formulations [3] | Turbidity of stressed formulations [3] | Particles in stressed formulations, compared with trehalose [6] | Turbidity of stressed formulations, compared with trehalose [6] | Particles in stressed formulations, compared with polysorbate 80 ([6]; polysorbate 80 at 0.05%) | Turbidity of stressed formulations, compared with polysorbate 80 ([6]; polysorbate 80 at 0.05%) | Solubility according to the classification of the European Pharmacopoeia [7] | Compound | Amount of particles after stirring stress [2] | Amount of particles after 3 freezing/thawing cycles [4] | Amount of particles after 3 freezing/thawing cycles [5] |
| --- | --- | --- | --- | --- | --- | --- | --- | --- | --- | --- | --- | --- |
| less particles | less turbid | less particles | less turbid | less particles | less turbid | about equally low amounts of particles | about equally low in turbidity | well soluble | O=C(CCCCC(=O)N(CCO)CCO)N(CCO)CCO [compound A, N,N,N′,N′-tetrakis-(2-hydroxyethyl) adipinic acid amide] | less particles than formulations comprising standard excipients like, glycerol, NaCl, or D(+) trehalose or formulations without any excipients | less particles than formulations without any excipient and formulations with arginine or polysorbate 20 | less particles than formulations comprising standard excipients like, glycerol, NaCl, or D(+) trehalose or formulations without any excipients |
| – | – | – | – | – | – | – | – | – | Polysorbate 20 [reference compound] | – | – | even less particles |
